Laboratory results as given in patent US11542259B2, “Compounds for the treatment of kinase-dependent disorders” (Exelixis, Inc., priority 2018, dated 2023).

Experiments:
Format in all cases: cell-based
KDR = KDR (Homo sapiens (Human), UniProt P35968); test: KDR autophosphorylation ELISA in HUVEC cells; conditions: cellular, VEGF165 stimulated
Method in brief: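 HUVECs grown 24 h at 37 °C, then serum-starved 24 h, were preincubated 1 h with an 8-point compound series (0.3% DMSO) and stimulated with 100 ng/mL human VEGF165 for 5 min. Phospho-KDR in lysates was measured by sandwich ELISA against a phospho-KDR standard; IC50 from 4-parameter logistic fit.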

Met = Met (Homo sapiens (Human), UniProt P08581); test: Met autophosphorylation ELISA in PC-3 cells; conditions: cellular, HGF stimulated, read-out: c-Met IC50
Method in brief: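 Phospho-Met (panTyr) sandwich ELISA on lysates of PC-3 cells given 100 ng/mL HGF for 10 min after 1 h compound exposure (8-point curve, 0.3% DMSO) following 3 h serum starvation. Normalised to HGF-stimulated DMSO and reference-inhibitor wells; 4-parameter logistic IC50.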

AXL = AXL (Homo sapiens (Human), UniProt P30530); test: AXL autophosphorylation ELISA in A-172 cells; conditions: cellular, Gas6 stimulated
Method in brief: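 Serum-starved (24 h) A-172 glioblastoma cells pretreated 1 h with compounds (8-point curve, 0.3% DMSO), then stimulated 15 min with 1 μg/mL Gas6. Lysate phospho-AXL measured by sandwich ELISA against a phospho-AXL standard; IC50 from 4-parameter logistic fit between DMSO and reference-inhibitor controls.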

Mer = Mer (Homo sapiens (Human), UniProt Q12866); test: Mer autophosphorylation ELISA in transient transfected 293A cells; conditions: cellular, MERTK transfected 293A cells
Experimental: 293A cells (Thermo Fisher #R70507) were seeded at 1.5×10^6 cells/well onto 100 mm dish (Greiner #664169), in DMEM (Thermo Fisher #11995-040) containing 10% FBS (Thermo Fisher #26140-079), 1% MEM NEAA (Thermo Fisher #11140-050), 1% GlutaMax (Thermo Fisher #35050-061), and 1% Penicillin Streptomycin (Thermo Fisher #15140-122). 293A cells were incubated at 37° C., 5% CO2 for 24 h and then transfected with 6 μg MERTK DNA (Genecopoeia #EX-Z8208-M02) using TransIT LT1 transfection reagent (Mirus-Bio #MIR2305). After 24 h incubation, the transfected 293A cells were seeded at 1×10^5 cells/well onto 96-well plates (Corning #3904) in DMEM growth medium overnight. Test compounds were serially diluted to produce an 8-point dose curve in fresh serum-free medium to a final concentration of 0.3% DMSO (vehicle) and added to the cells and incubated for 1 h. Cells were then immediately lysed with 150 μL of cold 1× lysis buffer [20 mM Tris, 137 mM sodium chloride, 2 mM EDTA, 10% glycerol, 1% NP-40 alternative, 1 mM activated sodium orthovanadate, 1 mM PefaBloc SC (Sigma-Aldrich #11429868001), protease/phosphatase inhibitor tablet (Thermo Fisher #A32959)]. Lysates were clarified by centrifugation and 50 μL/well added into the human phospho-Mer DuoSet IC ELISA (R&D Systems #DYC2579-2). Assay was performed according to manufacturer's instructions and sample phospho-Mer concentrations were extrapolated using human phospho-Mer control (R&D Systems #841793) as a standard. Positive control wells (100% activity) contained DMSO-treated cell lysates. Negative control wells (0% activity) contained reference inhibitor-treated cell lysates. IC50 values were calculated by nonlinear regression analysis using a 4-parameter logistic curve fit in ActivityBase XE (IDBS).

Chain of Met (P08581 25-1390): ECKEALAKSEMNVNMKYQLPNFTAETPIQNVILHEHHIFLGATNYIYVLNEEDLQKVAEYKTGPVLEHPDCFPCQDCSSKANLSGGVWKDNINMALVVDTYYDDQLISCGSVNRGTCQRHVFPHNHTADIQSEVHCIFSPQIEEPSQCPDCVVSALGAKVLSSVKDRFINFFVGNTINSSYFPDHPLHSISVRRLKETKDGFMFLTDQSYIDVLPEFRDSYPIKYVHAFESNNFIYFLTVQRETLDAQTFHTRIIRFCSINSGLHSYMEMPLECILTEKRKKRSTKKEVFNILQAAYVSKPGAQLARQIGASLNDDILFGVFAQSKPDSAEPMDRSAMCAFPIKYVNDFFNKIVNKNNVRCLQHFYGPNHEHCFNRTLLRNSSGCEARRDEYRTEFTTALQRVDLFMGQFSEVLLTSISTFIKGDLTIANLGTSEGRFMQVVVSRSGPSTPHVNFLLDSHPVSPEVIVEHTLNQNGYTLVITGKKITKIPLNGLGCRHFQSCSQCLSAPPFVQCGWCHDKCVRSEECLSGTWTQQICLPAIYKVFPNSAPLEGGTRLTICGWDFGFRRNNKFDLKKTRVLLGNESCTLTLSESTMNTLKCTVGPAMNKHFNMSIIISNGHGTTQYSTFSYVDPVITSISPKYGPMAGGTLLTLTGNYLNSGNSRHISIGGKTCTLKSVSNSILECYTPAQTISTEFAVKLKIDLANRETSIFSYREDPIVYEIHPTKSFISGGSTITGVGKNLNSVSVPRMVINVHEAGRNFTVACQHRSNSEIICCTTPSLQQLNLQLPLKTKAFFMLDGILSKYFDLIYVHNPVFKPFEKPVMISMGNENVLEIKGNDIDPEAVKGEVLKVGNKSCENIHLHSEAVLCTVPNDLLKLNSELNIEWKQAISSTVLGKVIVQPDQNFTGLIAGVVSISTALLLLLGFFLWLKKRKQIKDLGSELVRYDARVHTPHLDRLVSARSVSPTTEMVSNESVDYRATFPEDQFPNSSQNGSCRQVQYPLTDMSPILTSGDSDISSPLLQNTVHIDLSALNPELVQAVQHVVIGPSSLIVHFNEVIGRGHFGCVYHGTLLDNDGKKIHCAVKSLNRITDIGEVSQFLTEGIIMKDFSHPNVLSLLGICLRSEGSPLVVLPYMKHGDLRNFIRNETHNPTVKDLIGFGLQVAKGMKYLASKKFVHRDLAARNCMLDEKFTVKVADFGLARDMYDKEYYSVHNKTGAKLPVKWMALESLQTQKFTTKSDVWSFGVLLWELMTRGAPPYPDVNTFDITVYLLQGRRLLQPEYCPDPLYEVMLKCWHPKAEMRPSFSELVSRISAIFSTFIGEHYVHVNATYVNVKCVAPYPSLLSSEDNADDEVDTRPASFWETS
Chain of Mer (Q12866 21-999): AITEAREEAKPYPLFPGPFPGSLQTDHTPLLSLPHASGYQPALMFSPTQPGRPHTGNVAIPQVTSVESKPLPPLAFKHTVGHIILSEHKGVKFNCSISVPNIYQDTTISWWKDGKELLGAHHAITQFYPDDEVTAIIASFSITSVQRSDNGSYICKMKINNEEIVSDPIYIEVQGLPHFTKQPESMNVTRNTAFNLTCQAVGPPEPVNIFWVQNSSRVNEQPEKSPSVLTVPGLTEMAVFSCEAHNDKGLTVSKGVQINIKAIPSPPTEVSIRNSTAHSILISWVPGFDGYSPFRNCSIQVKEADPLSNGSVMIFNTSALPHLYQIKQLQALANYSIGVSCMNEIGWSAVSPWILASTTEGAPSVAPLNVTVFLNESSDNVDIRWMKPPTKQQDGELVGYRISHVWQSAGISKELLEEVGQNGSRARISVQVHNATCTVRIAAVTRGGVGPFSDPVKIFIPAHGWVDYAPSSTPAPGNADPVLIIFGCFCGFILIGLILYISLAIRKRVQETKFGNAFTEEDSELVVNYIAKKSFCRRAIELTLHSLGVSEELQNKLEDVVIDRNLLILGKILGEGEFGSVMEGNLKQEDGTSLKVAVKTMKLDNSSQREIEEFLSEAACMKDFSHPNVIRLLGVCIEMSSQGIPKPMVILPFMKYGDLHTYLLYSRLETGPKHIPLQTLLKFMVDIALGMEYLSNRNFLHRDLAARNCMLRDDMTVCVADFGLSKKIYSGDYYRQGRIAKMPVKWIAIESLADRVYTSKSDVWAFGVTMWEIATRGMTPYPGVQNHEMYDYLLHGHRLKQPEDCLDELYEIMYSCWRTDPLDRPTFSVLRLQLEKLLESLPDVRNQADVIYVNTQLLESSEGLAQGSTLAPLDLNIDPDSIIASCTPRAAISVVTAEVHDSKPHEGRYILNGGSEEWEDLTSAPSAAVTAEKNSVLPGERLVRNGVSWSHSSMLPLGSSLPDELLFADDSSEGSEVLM
Chain of AXL (P30530 26-894): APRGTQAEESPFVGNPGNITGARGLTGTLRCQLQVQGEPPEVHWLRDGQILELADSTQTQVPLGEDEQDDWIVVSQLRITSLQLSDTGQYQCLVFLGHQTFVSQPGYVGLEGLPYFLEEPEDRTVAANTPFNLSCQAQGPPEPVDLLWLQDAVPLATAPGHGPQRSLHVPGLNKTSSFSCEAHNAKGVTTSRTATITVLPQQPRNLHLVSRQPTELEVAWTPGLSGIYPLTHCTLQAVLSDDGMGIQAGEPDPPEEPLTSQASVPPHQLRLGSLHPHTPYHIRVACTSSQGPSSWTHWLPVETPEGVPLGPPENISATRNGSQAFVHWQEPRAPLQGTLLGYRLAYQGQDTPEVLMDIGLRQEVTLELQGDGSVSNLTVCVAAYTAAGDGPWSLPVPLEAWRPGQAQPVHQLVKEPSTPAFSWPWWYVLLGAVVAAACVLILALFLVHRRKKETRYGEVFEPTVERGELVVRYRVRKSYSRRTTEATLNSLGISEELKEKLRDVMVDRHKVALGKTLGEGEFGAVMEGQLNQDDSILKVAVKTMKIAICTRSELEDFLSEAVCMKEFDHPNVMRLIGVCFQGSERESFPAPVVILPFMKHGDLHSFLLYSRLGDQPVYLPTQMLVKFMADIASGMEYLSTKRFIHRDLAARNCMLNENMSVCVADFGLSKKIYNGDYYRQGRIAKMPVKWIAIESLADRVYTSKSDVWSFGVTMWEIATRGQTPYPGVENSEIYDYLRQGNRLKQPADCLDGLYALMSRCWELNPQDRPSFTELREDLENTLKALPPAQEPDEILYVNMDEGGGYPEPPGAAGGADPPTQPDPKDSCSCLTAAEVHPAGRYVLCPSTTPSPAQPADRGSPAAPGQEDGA
Chain of KDR (P35968 20-1356): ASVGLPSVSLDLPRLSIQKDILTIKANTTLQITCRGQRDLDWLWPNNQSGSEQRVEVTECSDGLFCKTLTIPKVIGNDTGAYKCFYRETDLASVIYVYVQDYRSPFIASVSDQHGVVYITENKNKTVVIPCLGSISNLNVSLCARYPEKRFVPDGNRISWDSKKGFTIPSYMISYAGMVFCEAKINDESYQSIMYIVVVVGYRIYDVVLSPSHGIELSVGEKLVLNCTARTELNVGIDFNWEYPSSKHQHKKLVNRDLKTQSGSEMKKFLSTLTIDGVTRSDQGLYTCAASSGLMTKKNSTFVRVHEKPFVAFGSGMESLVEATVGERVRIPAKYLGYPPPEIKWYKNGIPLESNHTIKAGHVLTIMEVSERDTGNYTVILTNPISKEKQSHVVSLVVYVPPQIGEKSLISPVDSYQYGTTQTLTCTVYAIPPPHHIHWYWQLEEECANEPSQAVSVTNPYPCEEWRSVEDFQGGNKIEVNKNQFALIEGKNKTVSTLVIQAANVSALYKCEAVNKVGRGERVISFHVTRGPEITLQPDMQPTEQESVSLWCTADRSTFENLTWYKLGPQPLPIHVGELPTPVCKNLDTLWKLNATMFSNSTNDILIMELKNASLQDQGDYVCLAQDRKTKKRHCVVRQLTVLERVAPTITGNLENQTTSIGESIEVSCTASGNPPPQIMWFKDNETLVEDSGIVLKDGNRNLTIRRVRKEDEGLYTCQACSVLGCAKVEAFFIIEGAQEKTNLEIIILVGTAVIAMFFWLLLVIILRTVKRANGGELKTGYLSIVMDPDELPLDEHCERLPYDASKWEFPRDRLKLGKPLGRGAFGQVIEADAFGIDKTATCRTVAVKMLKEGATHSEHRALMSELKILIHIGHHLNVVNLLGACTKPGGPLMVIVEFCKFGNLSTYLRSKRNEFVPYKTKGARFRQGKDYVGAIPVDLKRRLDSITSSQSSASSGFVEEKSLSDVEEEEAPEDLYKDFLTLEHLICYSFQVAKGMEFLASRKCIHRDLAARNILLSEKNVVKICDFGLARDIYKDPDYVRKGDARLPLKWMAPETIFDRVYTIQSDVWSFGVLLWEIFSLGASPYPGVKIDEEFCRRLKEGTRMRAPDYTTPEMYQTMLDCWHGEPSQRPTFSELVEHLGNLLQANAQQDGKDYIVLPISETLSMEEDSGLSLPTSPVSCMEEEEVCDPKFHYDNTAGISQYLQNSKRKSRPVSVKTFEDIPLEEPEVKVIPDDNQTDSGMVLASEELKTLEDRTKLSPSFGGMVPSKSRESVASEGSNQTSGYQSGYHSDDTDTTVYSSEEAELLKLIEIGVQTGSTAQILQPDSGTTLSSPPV

SMILES	IC50 (KDR)	IC50 (Met)	IC50 (AXL)	IC50 (Mer)
NC(=O)c1cc2c(Oc3ccc(NC(=O)C4(C(=O)Nc5ccc(F)cc5)CC4)cc3)ccnc2cc1NCCCN1CCOCC1 [Compound 71, 1-N-[4-[6-Carbamoyl-7-(3-morpholin-4-ylpropylamino)quinolin-4-yl]oxyphenyl]-1-N′-(4-fluorophenyl)cyclopropane-1,1-dicarboxamide]	10 to 100 nM	10 to 100 nM	10 to 100 nM	10 to 100 nM
CCC1NC(=O)c2cc3c(Oc4ccc(NC(=O)C5(C(=O)Nc6ccc(F)cc6)CC5)cc4)ccnc3cc2O1 (stereo not shown) [Compound 96, 1-N-[4-[(2-Ethyl-4-oxo-2,3-dihydropyrido[3,2-g][1,3]benzoxazin-6-yl)oxy]phenyl]-1-N′-(4-fluorophenyl)cyclopropane-1,1-dicarboxamide]	100 to 300 nM	100 to 300 nM	10 to 100 nM	10 to 100 nM
CC(O)COc1cc2nccc(Oc3ccc(NC(=O)C4(C(=O)Nc5ccc(F)cc5)CC4)cc3)c2cc1-c1ncco1 (stereo not shown) [Compound 125, 1-N′-(4-Fluorophenyl)-1-N-[4-[7-(2-hydroxypropoxy)-6-(1,3-oxazol-2-yl)quinolin-4-yl]oxyphenyl]cyclopropane-1,1-dicarboxamide]	10 to 100 nM	10 to 100 nM	≤ 10 nM	≤ 10 nM
O=C(NOC[C@H](O)CO)c1ccc2c(Oc3ccc(NC(=O)C4(C(=O)Nc5ccc(F)cc5)CC4)cc3)ccnc2c1 [Compound 169, 1-N-[4-[7-[[(2R)-2,3-Dihydroxypropoxy]carbamoyl]quinolin-4-yl]oxyphenyl]-1-N′-(4-fluorophenyl)cyclopropane-1,1-dicarboxamide]	100 to 300 nM	100 to 300 nM	100 to 300 nM	> 300 nM
CNS(=O)(=O)c1cc2c(Oc3ccc(NC(=O)C4(C(=O)Nc5ccc(F)cc5)CC4)cc3)ccnc2cc1OC [Compound 207, 1-N′-(4-Fluorophenyl)-1-N-[4-[7-methoxy-6-(methylsulfamoyl)quinolin-4-yl]oxyphenyl]cyclopropane-1,1-dicarboxamide]	10 to 100 nM	10 to 100 nM	10 to 100 nM	10 to 100 nM
CCNS(=O)(=O)c1cc2c(Oc3ccc(NC(=O)C4(C(=O)Nc5ccc(F)cc5)CC4)cc3)ccnc2cc1OC [Compound 208, 1-N-[4-[6-(Ethylsulfamoyl)-7-methoxyquinolin-4-yl]oxyphenyl]-1-N′-(4-fluorophenyl)cyclopropane-1,1-dicarboxamide]	10 to 100 nM	10 to 100 nM	10 to 100 nM	10 to 100 nM
CONC(=O)c1ccc2c(Oc3ccc(NC(=O)C4(C(=O)Nc5ccc(F)cc5)CC4)cc3)ccnc2c1 [Compound 213, 1-N′-(4-Fluorophenyl)-1-N-[4-[7-(methoxycarbamoyl)quinolin-4-yl]oxyphenyl]cyclopropane-1,1-dicarboxamide]	100 to 300 nM	10 to 100 nM	10 to 100 nM	10 to 100 nM
CCNC(=O)c1ccc2c(Oc3ccc(NC(=O)C4(C(=O)Nc5ccc(F)cc5)CC4)cc3)ccnc2c1 [Compound 214, 1-N-[4-[7-(Ethylcarbamoyl)quinolin-4-yl]oxyphenyl]-1-N′-(4-fluorophenyl)cyclopropane-1,1-dicarboxamide]	10 to 100 nM	10 to 100 nM	10 to 100 nM	10 to 100 nM
CNC(=O)c1cc2c(Oc3ccc(NC(=O)C4(C(=O)Nc5ccc(F)cc5Cl)CC4)cc3F)ccnc2cc1OC [Compound 264, 1-N′-(2-Chloro-4-fluorophenyl)-1-N-[3-fluoro-4-[7-methoxy-6-(methylcarbamoyl)quinolin-4-yl]oxyphenyl]cyclopropane-1,1-dicarboxamide]	10 to 100 nM	10 to 100 nM	10 to 100 nM	10 to 100 nM
CNC(=O)c1cc2c(Oc3ccc(NC(=O)C4(C(=O)Nc5ccc(F)cc5C)CC4)cc3F)ccnc2cc1OC [Compound 265, 1-N-[3-Fluoro-4-[7-methoxy-6-(methylcarbamoyl)quinolin-4-yl]oxyphenyl]-1-N′-(4-fluoro-2-methylphenyl)cyclopropane-1,1-dicarboxamide]	10 to 100 nM	10 to 100 nM	≤ 10 nM	10 to 100 nM
CNC(=O)c1cc2c(Oc3ccc(NC(=O)C4(C(=O)Nc5ccc(F)cc5OC(C)C)CC4)cc3F)ccnc2cc1OC [Compound 269, 1-N-[3-Fluoro-4-[7-methoxy-6-(methylcarbamoyl)quinolin-4-yl]oxyphenyl]-1-N′-(4-fluoro-2-propan-2-yloxyphenyl)cyclopropane-1,1-dicarboxamide]	10 to 100 nM	100 to 300 nM	10 to 100 nM	10 to 100 nM
CNC(=O)c1cc2c(Oc3ccc(NC(=O)C4(C(=O)Nc5ccc(F)cc5C5CC5)CC4)cc3F)ccnc2cc1OC [Compound 270, 1-N′-(2-Cyclopropyl-4-fluorophenyl)-1-N-[3-fluoro-4-[7-methoxy-6-(methylcarbamoyl)quinolin-4-yl]oxyphenyl]cyclopropane-1,1-dicarboxamide]	10 to 100 nM	10 to 100 nM	10 to 100 nM	10 to 100 nM
CO/N=C/c1ccc2c(Oc3ccc(NC(=O)C4(C(=O)Nc5ccc(F)cc5)CC4)cc3)ccnc2c1 [Compound 278, 1-N′-(4-Fluorophenyl)-1-N-[4-[7-[(E)-methoxyiminomethyl]quinolin-4-yl]oxyphenyl]cyclopropane-1,1-dicarboxamide]	100 to 300 nM	100 to 300 nM	100 to 300 nM	100 to 300 nM

Next, values leading:

IC50 (KDR)	IC50 (Met)	IC50 (AXL)	IC50 (Mer)	SMILES
≤ 10 nM	≤ 10 nM	≤ 10 nM	10 to 100 nM	CNC(=O)c1cc2c(Oc3ccc(NC(=O)C4(C(=O)Nc5ccc(F)cc5)CC4)cc3)ccnc2cc1OCCO [Compound 110, 1-N′-(4-Fluorophenyl)-1-N-[4-[7-(2-hydroxyethoxy)-6-(methylcarbamoyl)quinolin-4-yl]oxyphenyl]cyclopropane-1,1-dicarboxamide]
≤ 10 nM	10 to 100 nM	≤ 10 nM	10 to 100 nM	CC(O)COc1cc2nccc(Oc3ccc(NC(=O)C4(C(=O)Nc5ccc(F)cc5)CC4)cc3)c2cc1C(N)=O (stereo not shown) [Compound 115, 1-N-[4-[6-Carbamoyl-7-(2-hydroxypropoxy)quinolin-4-yl]oxyphenyl]-1-N′-(4-fluorophenyl)cyclopropane-1,1-dicarboxamide]
≤ 10 nM	10 to 100 nM	≤ 10 nM	10 to 100 nM	CNC(=O)c1cc2c(Oc3ccc(NC(=O)C4(C(=O)Nc5ccc(F)cc5)CC4)cc3)ccnc2cc1OCC(C)O (stereo not shown) [Compound 116, 1-N′-(4-Fluorophenyl)-1-N-[4-[7-(2-hydroxypropoxy)-6-(methylcarbamoyl)quinolin-4-yl]oxyphenyl]cyclopropane-1,1-dicarboxamide]
≤ 10 nM	10 to 100 nM	≤ 10 nM	≤ 10 nM	COc1cc2nccc(Oc3ccc(NC(=O)C4(C(=O)Nc5ccc(F)cc5)CC4)cc3)c2cc1-c1cnco1 [Compound 192, 1-N′-(4-Fluorophenyl)-1-N-[4-[7-methoxy-6-(1,3-oxazol-5-yl)quinolin-4-yl]oxyphenyl]cyclopropane-1,1-dicarboxamide]
≤ 10 nM	10 to 100 nM	≤ 10 nM	10 to 100 nM	CNC(=O)c1cc2c(Oc3ccc(NC(=O)C4(C(=O)Nc5ccc(F)cc5OC)CC4)cc3F)ccnc2cc1OC [Compound 268, 1-N-[3-Fluoro-4-[7-methoxy-6-(methylcarbamoyl)quinolin-4-yl]oxyphenyl]-1-N′-(4-fluoro-2-methoxyphenyl)cyclopropane-1,1-dicarboxamide]
≤ 10 nM	10 to 100 nM	10 to 100 nM	≤ 10 nM	CNC(=O)c1cc2c(Oc3ccc(NC(=O)C4(C(=O)Nc5ccc(Cl)cc5)CC4)cc3F)ccnc2cc1OC [Compound 274, 1-N-(4-Chlorophenyl)-1-N′-[3-fluoro-4-[7-methoxy-6-(methylcarbamoyl)quinolin-4-yl]oxyphenyl]cyclopropane-1,1-dicarboxamide]
